Active and inactive are the calls of the source. No cut-off for these calls is given here. Where a SMILES comes first, the peptide text is derived from it. Bridges are numbered along the chain shown (N, C = ends). Roman numbers before positions name the chains, in order. Side-chain parts run from the residue outwards. The star is where a group is joined. Acetyl(C-α-L-Fucp) = C[C@@H]1O[C@@H](CC(=O)*)[C@@H](O)[C@H](O)[C@@H]1O
Key:
[1] = Binding affinity to Pseudomonas aeruginosa lectin LecB after 1 hr by enzyme-linked lectin assay
Pseudomonas aeruginosa [2] = experiment: Ratio of L-fucose IC50 to compound IC50 for Pseudomonas aeruginosa lectin LecB after 1 hr by enzyme-linked lectin assay
[3] = Half life in human serum; format: ADME, cell-free
[4] = Stability of the compound in 100 mM of tris buffer at pH 7.5 after 30 mins in presence of chymotrypsin; format: ADME; settings: isolated protein, pH 7.5, 0.5 h
[5] = Stability of the compound in 100 mM of tris buffer at pH 7.5 after 30 mins in presence of trypsin; format: ADME; settings: isolated protein, pH 7.5, 0.5 h
Pseudomonas aeruginosa [6] = experiment: Inhibition of wild type Pseudomonas aeruginosa PAO1 biofilm formation at 0.05 mM after 24 hrs using acridine orange staining by steel coupon assay; format: functional, organism-based
Pseudomonas aeruginosa [7] = experiment: Ratio of FD2 IC50 to compound IC50 for Pseudomonas aeruginosa lectin LecB after 1 hr by enzyme-linked lectin assay
Serum = experiment: Metabolic stability in human serum; format: ADME, cell-free
[8] = Stability of the compound in 100 mM of tris buffer at pH 7.5 after 48 hrs in presence of chymotrypsin; format: ADME; settings: isolated protein, pH 7.5, 48 h
Pseudomonas aeruginosa [9] = experiment: Inhibition of Pseudomonas aeruginosa clinical isolate A014 biofilm formation at 0.05 mM after 24 hrs using acridine orange staining by steel coupon assay; format: functional, organism-based
Pseudomonas aeruginosa [10] = experiment: Inhibition of Pseudomonas aeruginosa clinical isolate A035 biofilm formation at 0.05 mM after 24 hrs using acridine orange staining by steel coupon assay; format: functional, organism-based
Pseudomonas aeruginosa [11] = experiment: Inhibition of Pseudomonas aeruginosa clinical isolate A021 biofilm formation at 0.05 mM after 24 hrs using acridine orange staining by steel coupon assay; format: functional, organism-based
[12] = Stability of the compound in 100 mM of tris buffer at pH 7.5 after 48 hrs in presence of trypsin; format: ADME; settings: isolated protein, pH 7.5, 48 h

Row | IC50 [1] [µM] | Ratio IC50 (Pseudomonas aeruginosa [2]) | half-life [3] [h] | Stability [4] | Stability [5] | Ratio IC50 (Pseudomonas aeruginosa [7]) | Stability (Serum) | Stability [8] | Stability [12] | Compound | inhibition (Pseudomonas aeruginosa [6]) | inhibition (Pseudomonas aeruginosa [9]) | inhibition (Pseudomonas aeruginosa [10]) | inhibition (Pseudomonas aeruginosa [11])
1 | 0.15 | 73.3 |  |  |  |  |  |  |  | CC(C)C[C@H](NC(=O)[C@H](Cc1cnc[nH]1)NC(=O)[C@H](CCCCNC(=O)[C@H](CC(C)C)NC(=O)[C@H](CCCCN)NC(=O)[C@H](Cc1ccccc1)NC(=O)[C@H](CCCCNC(=O)[C@H](CC(C)C)NC(=O)[C@@H]1CCCN1C(=O)[C@H](CCCCN)NC(=O)C[C@@H]1O[C@@H](C)[C@@H](O)[C@@H](O)[C@@H]1O)NC(=O)[C@H](CC(C)C)NC(=O)[C@@H]1CCCN1C(=O)[C@H](CCCCN)NC(=O)C[C@@H]1O[C@@H](C)[C@@H](O)[C@@H](O)[C@@H]1O)NC(=O)[C@H](CC(C)C)NC(=O)[C@H](CCCCN)NC(=O)[C@H](Cc1ccccc1)NC(=O)[C@H](CCCCNC(=O)[C@H](CC(C)C)NC(=O)[C@@H]1CCCN1C(=O)[C@H](CCCCN)NC(=O)C[C@@H]1O[C@@H](C)[C@@H](O)[C@@H](O)[C@@H]1O)NC(=O)[C@H](CC(C)C)NC(=O)[C@@H]1CCCN1C(=O)[C@H](CCCCN)NC(=O)C[C@@H]1O[C@@H](C)[C@@H](O)[C@@H](O)[C@@H]1O)C(N)=O |  |  |  | 
2 | 0.14 | 78.6 | 60 | Unstable | Unstable |  |  |  |  | CC[C@H](C)[C@H](NC(=O)[C@H](Cc1cnc[nH]1)NC(=O)[C@H](CCCCNC(=O)[C@@H](NC(=O)[C@H](CCCCN)NC(=O)[C@H](Cc1ccccc1)NC(=O)[C@H](CCCCNC(=O)[C@H](CC(C)C)NC(=O)[C@@H]1CCCN1C(=O)[C@H](CCCCN)NC(=O)C[C@@H]1O[C@@H](C)[C@@H](O)[C@@H](O)[C@@H]1O)NC(=O)[C@H](CC(C)C)NC(=O)[C@@H]1CCCN1C(=O)[C@H](CCCCN)NC(=O)C[C@@H]1O[C@@H](C)[C@@H](O)[C@@H](O)[C@@H]1O)[C@@H](C)CC)NC(=O)[C@@H](NC(=O)[C@H](CCCCN)NC(=O)[C@H](Cc1ccccc1)NC(=O)[C@H](CCCCNC(=O)[C@H](CC(C)C)NC(=O)[C@@H]1CCCN1C(=O)[C@H](CCCCN)NC(=O)C[C@@H]1O[C@@H](C)[C@@H](O)[C@@H](O)[C@@H]1O)NC(=O)[C@H](CC(C)C)NC(=O)[C@@H]1CCCN1C(=O)[C@H](CCCCN)NC(=O)C[C@@H]1O[C@@H](C)[C@@H](O)[C@@H](O)[C@@H]1O)[C@@H](C)CC)C(N)=O (I: {Acetyl(C-α-L-Fucp)}-KPLK([Leu-Pro-Lys-Acetyl(C-α-L-Fucp)])FKIKHI-NH2 / II: {Acetyl(C-α-L-Fucp)}-KPLK([Leu-Pro-Lys-Acetyl(C-α-L-Fucp)])FKI; amide I:8-II:C) |  |  |  | 
3 | 0.66 | 16.7 |  |  |  | 4.7 | Stable | Stable | Stable | CC(C)C[C@@H](NC(=O)[C@@H](Cc1cnc[nH]1)NC(=O)[C@@H](CCCCNC(=O)[C@@H](CC(C)C)NC(=O)[C@@H](CCCCN)NC(=O)[C@@H](Cc1ccccc1)NC(=O)[C@@H](CCCCNC(=O)[C@@H](CC(C)C)NC(=O)[C@H]1CCCN1C(=O)[C@@H](CCCCN)NC(=O)C[C@@H]1O[C@@H](C)[C@@H](O)[C@@H](O)[C@@H]1O)NC(=O)[C@@H](CC(C)C)NC(=O)[C@H]1CCCN1C(=O)[C@@H](CCCCN)NC(=O)C[C@@H]1O[C@@H](C)[C@@H](O)[C@@H](O)[C@@H]1O)NC(=O)[C@@H](CC(C)C)NC(=O)[C@@H](CCCCN)NC(=O)[C@@H](Cc1ccccc1)NC(=O)[C@@H](CCCCNC(=O)[C@@H](CC(C)C)NC(=O)[C@H]1CCCN1C(=O)[C@@H](CCCCN)NC(=O)C[C@@H]1O[C@@H](C)[C@@H](O)[C@@H](O)[C@@H]1O)NC(=O)[C@@H](CC(C)C)NC(=O)[C@H]1CCCN1C(=O)[C@@H](CCCCN)NC(=O)C[C@@H]1O[C@@H](C)[C@@H](O)[C@@H](O)[C@@H]1O)C(N)=O | Active | Active | Active | Active
4 | 11 | 1 |  |  |  |  |  |  |  | C[C@H](O)[C@@H](O)[C@@H](O)[C@H](O)C=O [L-FUCOSE] |  |  |  | 

— ChEMBL document CHEMBL3217732, “Inhibition of Pseudomonas aeruginosa biofilms with a glycopeptide dendrimer containing D-amino acids” (Medchemcomm, 2011)
